# Legend:
# VEGFA = VEGFA ELISA assay (IC50); type: cell-based; conditions: Homo sapiens, 786-0, 786-O cells, 24 h, VEGFA in culture supernatant by ELISA
# Procedure: 786-O cells in the logarithmic growth phase were inoculated into a 96-well plate at a cell concentration of 65,000 cells per ml of culture liquid, 180 μL per well. The compounds were diluted to the corresponding concentrations, and 20 μL of compound solutions of various concentrations were added to the corresponding cell wells, so that the final concentrations of the compounds were 1.5 nM, 4.6 nM, 13.7 nM, 41.2 nM, 123.5 nM, 370.4 nM, 1111.1 nM, 3333.3 nM, and 10000 nM, respectively. After culturing for 24 h, the cell culture supernatant was collected and the VEGFA concentration was determined using an ELISA kit (purchased from Abeam). Finally, the reaction was terminated and the absorbance value of each well was measured at a wavelength of 450 nm using an ELISA reader. The IC50 values were calculated by GraphPadPrism. CellTiter-Glo reagent was used to measure cell viability.
# 786-O-HIF2α-Luc cells = assay: Luciferase assay (HIF2α reporter gene cells); type: cell-based; conditions: 18-20 h, luminescence
# Procedure: The luciferase LUC gene was stably transfected into 786-0 cells (purchased from ATCC) using Lipofectamine 3000 transfection reagent (purchased from Invitrogen) to construct HIF2α reporter gene cells (786-O-HIF2α-Luc cells). The experiment was performed when 786-O-HIF2α-Luc cells were in the logarithmic growth phase, the culture medium (RPMI MEDIUM 1640, purchased from Invitrogen) was discarded, and the cells were rinsed three times with PBS; trypsin (TrypLE, purchased from Invitrogen) was added to digest the cells, and the digestion was terminated with culture medium, 10% fetal bovine serum, 1% penicillin, and streptomycin. The cells were collected by centrifugation, and washed twice with PBS to remove phenol red in the culture medium. The cells were resuspended to an appropriate concentration. The cell density and viability were measured, to ensure that the cells with a viability of at least 90% were used in the assay.
# The compounds at a gradient concentration were transferred into 384 wells using Echo550 (non-contact acoustic pipetting system, purchased from Labcyte), 25 nL/well. The cells were seeded into 384-well plates, with 4500 cells/well and 25 μL of culture medium, and the final concentrations of the compounds were 10000 nM, 3333 nM, 1111 nM, 370 nM, 123 nM, 41.1 nM, 13.7 nM, 4.6 nM, 1.5 nM, and 0.5 nM, respectively. The cells were cultured for 18-20 h under conditions of 37° C. and 5% CO2. Steady-Glo™ luciferase assay system (purchased from Promega) was added to a 384-well plate, 25 μL/well. Luminescence values were detected using Envision. The inhibition rate % was calculated based on the RLU (Record Luminescence) signal value of each well, and then the IC50 values of the corresponding compounds were calculated by fitting using Graphpad 8.0.
# The IC50 data of the exemplary examples are provided in Table 2, where A stands for IC50≤0.1 μM; B stands for 0.1 μM<IC50≤0.5 μM; and C stands for IC50>0.5 μM.
SMILES,IC50 (VEGFA),IC50 (VEGFA; class symbols),further results
"O=S(=O)(c1cn(-c2ccc(F)c(C(F)F)c2)c2c1[C@H](O)C(F)(F)CC2)C(F)F [Example 6, (S)-1-(3-(difluoromethyl)-4-fluorophenyl)-3-((difluoromethyl)sulfonyl)-5,5-difluoro-4,5,6,7-tetrahydro-1H-indol-4-ol]",11 nM,–,IC50 (786-O-HIF2α-Luc cells): 38 nM
"N#Cc1cc(-n2cc(S(=O)(=O)CF)c3c2CCC(F)(F)[C@H]3O)ccc1F [Example 11, (S)-5-(5,5-difluoro-3-((fluoromethyl)sulfonyl)-4-hydroxyl-4,5,6,7-tetrahydro-1H-indol-1-yl)-2-fluorobenzonitrile]",27 nM,–,IC50 (786-O-HIF2α-Luc cells; class symbols): 100 to 500 nM
"O=S(=O)(c1cn(-c2ccc(F)c(C(F)F)c2)c2c1[C@H](O)C(F)(F)CC2)C(F)(F)F [Example 12, (S)-1-(3-(difluoromethyl)-4-fluorophenyl)-5,5-difluoro-3-((trifluoromethyl)sulfonyl)-4,5,6,7-tetrahydro-1H-indol-4-ol]",10 nM,–,IC50 (786-O-HIF2α-Luc cells; class symbols): ≤ 100 nM
"O=S(=O)(CF)c1cn(-c2ccc(F)c(C(F)F)c2)c2c1[C@H](O)C(F)(F)CC2 [Example 14, (S)-1-(3-(difluoromethyl)-4-fluorophenyl)-5,5-difluoro-3-((fluoromethyl)sulfonyl)-4,5,6,7-tetrahydro-1H-indol-4-ol]",40 nM,–,IC50 (786-O-HIF2α-Luc cells): 54 nM
"O=S(=O)(c1cn(-c2ccc(F)c(C(F)(F)F)c2)c2c1[C@H](O)C(F)(F)CC2)C(F)(F)F [Example 23, (S)-5,5-difluoro-1-(4-fluoro-3-(trifluoromethyl)phenyl)-3-((trifluoromethyl)sulfonyl)-4,5,6,7-tetrahydro-1H-indol-4-ol]",11 nM,–,IC50 (786-O-HIF2α-Luc cells): 40 nM
"O=S(=O)(c1cn(-c2ccc(F)c(C(F)F)c2)c2c1[C@H](O)CCC2)C(F)F [Example 32, (R)-1-(3-(difluoromethyl)-4-fluorophenyl)-3-((difluoromethyl)sulfonyl)-4,5,6,7-tetrahydro-1H-indol-4-ol]",62 nM,–,IC50 (786-O-HIF2α-Luc cells; class symbols): 100 to 500 nM
"O=S(=O)(c1cn(-c2ccc(F)c(Cl)c2)c2c1[C@H](O)C(F)(F)CC2)C(F)(F)F [Example 33, (S)-1-(3-chloro-4-fluorophenyl)-5,5-difluoro-3-((trifluoromethyl)sulfonyl)-4,5,6,7-tetrahydro-1H-indol-4-ol]",41 nM,–,IC50 (786-O-HIF2α-Luc cells): 52 nM
"N#Cc1ccc(-n2cc(S(=O)(=O)C(F)(F)F)c3c2CCC(F)(F)[C@H]3O)cc1C(F)F [Example 35, (S)-4-(5,5-difluoro-4-hydroxyl-3-((trifluoromethyl)sulfonyl)-4,5,6,7-tetrahydro-1H-indol-1-yl)-2-(difluoromethyl)benzonitrile]",18 nM,–,IC50 (786-O-HIF2α-Luc cells): 10 nM
"N#Cc1ccc(-n2cc(S(=O)(=O)C(F)F)c3c2CCC(F)(F)[C@H]3O)cc1C(F)F [Example 43, (S)-2-(difluoromethyl)-4-(3-((difluoromethyl)sulfonyl)-5,5-difluoro-4-hydroxyl-4,5,6,7-tetrahydro-1H-indol-1-yl)benzonitrile]",–,≤ 500 nM,–
"N#Cc1ccc(-n2cc(S(=O)(=O)CF)c3c2CCC(F)(F)[C@H]3O)cc1C(F)F [Example 44, (S)-4-(5,5-difluoro-3-((fluoromethyl)sulfonyl)-4-hydroxyl-4,5,6,7-tetrahydro-1H-indol-1-yl)-2-(difluoromethyl) benzonitrile]",–,≤ 500 nM,–
"N#Cc1ccc(-n2cc(S(=O)(=O)CF)c3c2CCC(F)(F)[C@H]3O)cc1C#N [Example 45, (S)-4-(5,5-difluoro-3-((fluoromethyl)sulfonyl)-4-hydroxyl-4,5,6,7-tetrahydro-1H-indol-1-yl)phthalonitrile]",–,≤ 500 nM,–
"N#Cc1ccc(-n2cc(C(F)(F)C(F)(F)F)c3c2CCC(F)(F)[C@H]3O)cc1C#N [Example 46, (S)-4-(5,5-difluoro-4-hydroxyl-3-(perfluoroethyl)-4,5,6,7-tetrahydro-1H-indol-1-yl)phthalonitrile]",–,≤ 500 nM,–
"N#CC(F)S(=O)(=O)c1cn(-c2ccc(F)c(C(F)F)c2)c2c1[C@H](O)C(F)(F)CC2 (stereo partly drawn) [Example 47, 2-(((S)-1-(3-(difluoromethyl)-4-fluorophenyl)-5,5-difluoro-4-hydroxyl-4,5,6,7-tetrahydro-1H-indol-3-yl)sulfonyl)-2-fluoroacetonitrile]",8 nM,–,–
"CCOC(=O)C(F)(F)c1cn(-c2ccc(F)c(C(F)F)c2)c2c1[C@H](O)C(F)(F)CC2 [Example 48, ethyl (S)-2-(1-(3-(difluoromethyl)-4-fluorophenyl)-5,5-difluoro-4-hydroxyl-4,5,6,7-tetrahydro-1H-indol-3-yl)-2,2-difluoroacetate]",1620 nM,–,–
"N#CC(F)(F)c1cn(-c2ccc(F)c(C(F)F)c2)c2c1[C@H](O)C(F)(F)CC2 [Example 49, (S)-2-(1-(3-(difluoromethyl)-4-fluorophenyl)-5,5-difluoro-4-hydroxyl-4,5,6,7-tetrahydro-1H-indol-3-yl)-2,2-difluoroacetonitrile]",99 nM,–,–
"O[C@H]1c2c(-c3nccs3)cn(-c3ccc(F)c(C(F)F)c3)c2CCC1(F)F [Example 51, (S)-1-(3-(difluoromethyl)-4-fluorophenyl)-5,5-difluoro-3-(thiazol-2-yl)-4,5,6,7-tetrahydro-1H-indol-4-ol]",1250 nM,–,–
"CC(C#N)S(=O)(=O)c1cn(-c2ccc(F)c(C(F)F)c2)c2c1[C@H](O)C(F)(F)CC2 (stereo partly drawn) [Example 57, 2-(((S)-1-(3-(difluoromethyl)-4-fluorophenyl)-5,5-difluoro-4-hydroxyl-4,5,6,7-tetrahydro-1H-indol-3-yl)sulfonyl) propanenitrile]",–,≤ 500 nM,–
"N#CC1(S(=O)(=O)c2cn(-c3ccc(F)c(C(F)F)c3)c3c2[C@H](O)C(F)(F)CC3)CC1 [Example 58, (S)-1-((1-(3-(difluoromethyl)-4-fluorophenyl)-5,5-difluoro-4-hydroxyl-4,5,6,7-tetrahydro-1H-indol-3-yl)sulfonyl)cyclopropane-1-nitrile]",639 nM,–,–
"O=S(=O)(CF)c1cn(-c2ccc(F)c(C(F)F)c2)c2c1[C@@H](O)C(F)(F)CC2 [Example 61, (R)-1-(3-(difluoromethyl)-4-fluorophenyl)-5,5-difluoro-3-((fluoromethyl)sulfonyl)-4,5,6,7-tetrahydro-1H-indol-4-ol]",–,≤ 500 nM,–
"NC(=O)c1cn(-c2ccc(F)c(C(F)F)c2)c2c1[C@H](O)C(F)(F)CC2 [Example 62, (S)-1-(3-(difluoromethyl)-4-fluorophenyl)-5,5-difluoro-4-hydroxyl-4,5,6,7-tetrahydro-1H-indole-3-carboxamide]",–,≤ 500 nM,–
"O=S(=O)(c1cn(-c2ccc(F)c(C(F)F)c2)c2c1[C@H](O)[C@H](F)CC2)C(F)F [Example 63, (4S,5R)-1-(3-(difluoromethyl)-4-fluorophenyl)-3-((difluoromethyl)sulfonyl)-5-fluoro-4,5,6,7-tetrahydro-1H-indol-4-ol]",50 nM,–,–
"O=S(=O)(c1cn(-c2ccc(F)c(C(F)F)c2)c2c1[C@H](O)[C@@H](F)CC2)C(F)F [Example 64, (4S,5S)-1-(3-(difluoromethyl)-4-fluorophenyl)-3-((difluoromethyl)sulfonyl)-5-fluoro-4,5,6,7-tetrahydro-1H-indol-4-ol]",33 nM,–,–
"N#Cc1ccc(-n2cc(S(=O)(=O)C(F)(F)F)c3c2CCC[C@H]3O)cc1C(F)F [Example 65, (R)-2-(difluoromethyl)-4-(4-hydroxyl-3-((trifluoromethyl)sulfonyl)-4,5,6,7-tetrahydro-1H-indol-1-yl)benzonitrile]",30 nM,–,–
"O[C@H]1c2c(C(F)(F)F)cn(-c3ccc(F)cc3F)c2CCC1(F)F [Example 72, (S)-1-(2,4-difluorophenyl)-5,5-difluoro-3-(trifluoromethyl)-4,5,6,7-tetrahydro-1H-indol-4-ol]",–,500 to 1500 nM,–
"N#Cc1cc(-n2c(F)c(-c3cccs3)c3c2CCC(F)(F)C3O)ccc1F (stereo not drawn) [Example 106, 2-fluoro-5-(2,5,5-trifluoro-4-hydroxyl-3-(thien-2-yl)-4,5,6,7-tetrahydro-1H-indol-1-yl)benzonitrile]",15 nM,–,–

# From US20250042853A1, “BICYCLIC COMPOUND AND APPLICATION THEREOF” (BETTA PHARMACEUTICALS CO., LTD, priority 2021, published 2025)
